# Measured values from patent US20130184316A1, “METHODS FOR DIAGNOSING AND TREATING CONCUSSIVE DISORDERS” (priority 2010, published 2013).
# Columns and labels:
# subject with PCS [1] = test: California Verbal Learning Test II (CVLT); format: in vivo, human
# Experimental: (§1) A single subject, prospective, double blind, placebo controlled trial of 4AP was then conducted in this individual. IRB approvals were obtained from all participating institutions and Subject gave written informed consent for all parts of the study. After a 4-week medication washout period, the Subject was randomly assigned a week's course of placebo, followed by a weeklong medication washout period, followed by another week on 4-AP (10 mg twice daily). Based on the medication half-life, a one week washout period was presumed to be sufficient. Subject and assessors were blinded to treatment allocation.
# (§2) Measurements conducted at identical times at baseline and on each of the subsequent 3 weeks of the study included: • Balance and mobility assessed by Hi-Mat test (Arch. Phys. Med. Rehabil. 2006, 87(3), 437-442; hereby incorporated by reference in its entirety). • Subjective symptom assessment using the Rivermead Post-Concussion Questionnaire (Clin. Rehabil. 2005, 19(8), 878-887; hereby incorporated by reference in its entirety). • Neuropsychological assessment, consisting of the digit span and cancellation tests from the Wechsler Adult Intelligence Scale, 4th edition (Coalson, D. L., Engi-Raiford, S. Wechsler Adult Intelligence Scale, 4th Ed., in Technical and Interpretive Manual, 4th Ed., San Antonio: Pearson (2008); hereby incorporated by reference in its entirety), the California Verbal Learning Test II (CVLT) (Delis, D. C., Kramer, J. H., Kaplan, E., Ober, B. A. in CVLT-II Manual, San Antonio: The Psychological Corporation (2000); hereby incorporated by reference in its entirety), the Verbal Fluency Test (Connors Continuous Performance Test Computer II Program Version 5 Users Manual, Toronto: Multi-Health Systems, Inc. (2002); hereby incorporated by reference in its entirety), and the Connors Continuous Performance Test (J. Nervous Ment. Dis. 1985, 173(6), 353-357; hereby incorporated by reference in its entirety). • Videonystagmography (VNG) and rotary chair (RC) vestibular testing […]
# demyelinated axons = conditions: experimental and clinical settings, literature; cited from earlier work
# subject with PCS [2] = test: Abbreviated Abnormal Involuntary Movement Scale (AIMS), blinded raters of video recordings; format: in vivo, human
# Description: During testing sessions, study personnel noted relapse of paroxysmal grimacing, weakness, sialorrhea, slurred speech, and slowed responses that the Subject had experienced prior to starting 4AP. In an effort to corroborate the presence of abnormal movements, video recordings of identical testing segments were reviewed by raters, physical, occupational, and speech therapists all with experience working with TBI. Raters were blinded to subject history and study variables. Absent any established rating scales for the unusual phenomenon observed, an abbreviated version of the Abnormal Involuntary Movement Scale (AIMS) was used (Prog. Brain Res. 2007, 161, 327-338; hereby incorporated by reference in its entirety).
# subject with PCS [3] = test: Videonystagmography (VNG); format: in vivo, human
# Experimental: as §1
# Measurements conducted at identical times at baseline and on each of the subsequent 3 weeks of the study included: • Balance and mobility assessed by Hi-Mat test (Arch. Phys. Med. Rehabil. 2006, 87(3), 437-442; hereby incorporated by reference in its entirety). • Subjective symptom assessment using the Rivermead Post-Concussion Questionnaire (Clin. Rehabil. 2005, 19(8), 878-887; hereby incorporated by reference in its entirety). • Neuropsychological assessment, consisting of the digit span and cancellation tests from the Wechsler Adult Intelligence Scale, 4th edition (Coalson, D. L., Engi-Raiford, S. Wechsler Adult Intelligence Scale, 4th Ed., in Technical and Interpretive Manual, 4th Ed., San Antonio: Pearson (2008); hereby incorporated by reference in its entirety), the California Verbal Learning Test II (CVLT) (Delis, D. C., Kramer, J. H., Kaplan, E., Ober, B. A. in CVLT-II Manual, San Antonio: The Psychological Corporation (2000); hereby incorporated by reference in its entirety), the Verbal Fluency Test (Connors Continuous Performance Test Computer II Program Version 5 Users Manual, Toronto: Multi-Health Systems, Inc. (2002); hereby incorporated by reference in its entirety), and the Connors Continuous Performance Test (J. Nervous Ment. Dis. 1985, 173(6), 353-357; hereby incorporated by reference in its entirety). • Videonystagmography (VNG) and rotary chair (RC) vestibular testing
# Based on the observation of significant central findings on videonystagmography and rater-observed reduction in abnormal movements while on the active medication, the Subject was asked to return for 2 additional rounds of open-label testing, 5 and 9 weeks after conclusion of the formal study. The Subject resumed taking 4AP 10 mg twice daily immediately after the conclusion of the blinded testing.
# downbeat nystagmus (DBN) = conditions: literature reports; cited from earlier work
# [4] = test system: patients with type-2 episodic ataxia (EA2); conditions: literature reports; cited from earlier work
# [5] = test system: EA2 mutant Purkinje cells; conditions: literature (J. Neurosci. 2010), cited from earlier work
# subject with PCS [6] = test: Neurofeedback evaluation; format: in vivo, human; conditions: following treatment of 4AP
# subject with PCS [7] = test: Cancellation test, Wechsler Adult Intelligence Scale 4th edition; format: in vivo, human
# Experimental: as §1, §2
# subject with PCS [8] = test: Single subject double blind placebo controlled trial of 4AP with open-label rounds, overall findings; format: in vivo, human
# Experimental: as §1, §2
# subject with PCS [9] = test: Balance and mobility assessed by Hi-Mat test; format: in vivo, human
# Experimental: as §1, §2
# [10] = test system: cerebellar Purkinje cells; conditions: in vitro, literature; cited from earlier work
# [11] = session 5 1st Open: open-label 4AP 10 mg twice daily, 5 weeks after formal study
# [12] = session 6 2nd Open: open-label 4AP 10 mg twice daily, 9 weeks after formal study
# [13] = two open phases, extended medication use
compound,measurement,setting,value
"Nc1ccncc1 [4-AP, 4-Amino pyridine]","CVLT-II immediate, percentile","subject with PCS [1]; session 4 Active: blinded, one week on 4-AP 10 mg twice daily, baseline 27, placebo 21, washout 65",18 percentile
same,"CVLT-II immediate, percentile",subject with PCS [1]; [11],69 percentile
same,"CVLT-II immediate, percentile",subject with PCS [1]; [12],93 percentile
same,Conduction in demyelinated axons,demyelinated axons,improve conduction
same,"AIMS, active medication phase compared to placebo and washout conditions","subject with PCS [2]; blinded phase, 4-AP 10 mg twice daily for one week",improvement
same,AIMS Subscale,"subject with PCS [2]; session 4 Active: blinded, one week on 4-AP 10 mg twice daily, placebo 15.0, washout 9.5",4.5
same,"Head left positioning, left beating non-fatiguing nystagmus","subject with PCS [3]; test 4 (Active, 4-AP 10 mg twice daily), tests 1-3: 6, 2, 2",4 degrees/second
same,"Head left position, left beating non-fatiguing nystagmus","subject with PCS [3]; test 5 (1st open-label round, 4AP 10 mg twice daily)",2 degrees/second
same,Delay of onset of left beating nystagmus in left dix hallpike position,"subject with PCS [3]; test 6 (2nd open-label round, 4AP 10 mg twice daily), immediate on tests 1-4",50 s
same,Down beating nystagmus with head tilted down,"subject with PCS [3]; tests 1-4, including active phase",present
same,Downbeat nystagmus (DBN),downbeat nystagmus (DBN),relieve downbeat nystagmus
same,Symptoms of EA2 (including downbeat nystagmus),[4],both relieved and prevented
same,"Purkinje cell excitability, spontaneous activity or firing rate",[5]; models of episodic ataxia,does not increase
same,Functional consequence of treatment in EA2 mutant Purkinje cells,[5]; via blockage of potassium channels,restoration of the precision of pacemaking
same,"Neurofeedback parameters (neurosynchronization, restoration of brain activity)",subject with PCS [6],dramatic and unexpected improvements
same,Cancellation task percentile,"subject with PCS [7]; session 4 Active: blinded, one week on 4-AP 10 mg twice daily, baseline 37, placebo 37, washout 37",37 percentile
same,Cancellation task percentile,subject with PCS [7]; [11],75 percentile
same,Cancellation task percentile,subject with PCS [7]; [12],84 percentile
same,"Balance/mobility, symptoms and neuropsychological evaluations","subject with PCS [8]; active phase compared with the other blinded phases (baseline, placebo, washout)",similar
same,Balance/mobility and subjective symptoms,subject with PCS [8]; [13],improvement
same,Cancellation and CVLT: cognitive processing speed and auditory memory,subject with PCS [8]; [13],improved
same,HiMat score,"subject with PCS [9]; session 4 Active: blinded, one week on 4-AP 10 mg twice daily, baseline 18, placebo 28, washout 28",31
same,HiMat score,"subject with PCS [9]; session 5 1st Open: open-label 4AP 10 mg twice daily, 5 weeks after conclusion of the formal study",32
same,HiMat score,"subject with PCS [9]; session 6 2nd Open: open-label 4AP 10 mg twice daily, 9 weeks after conclusion of the formal study",50
same,Excitability of cerebellar Purkinje cells,[10],increase the excitability
